Experimental data as given in patent US5922557A, “System for stably expressing a high-affinity camp phosphodiesterase and use thereof” (Merck & Co., Inc., priority 1998, dated 1999).

Legend:
[1] = test system: high-affinity rolipram binding site, rat forebrain membranes; conditions: cited from earlier work
FLAG PDE IVAmet330 [2] = conditions: truncated, catalytically active enzyme
Protocol: (§1) CHO-K1 cells were lysed by sonication for 10 secs at a power setting of 50% (BRAUNSONIC Model 2000) in an ice cold solution containing 50 mM Tris, pH 7.5; 1 mM EDTA; and 200 μM mercaptoethanol. The soluble and particulate fractions of the cell were obtained by centrifuging the sonicate for 90 min at 100,000×g at 4° C. PDE activity was measured in a solution containing 50 mM Tris, pH 7.5; 10 mM MgCl2 ; 1 mM EDTA; and 100 nM (or indicated) 3H-cAMP (100 ml final volume) in the presence of varying concentrations of inhibitor. The reaction mixture containing enzyme was incubated for 10 min at 30° C. in 96-well View Plates (PACKARD), and terminated by the addition of 50 μl Phosphodiesterase Scintillation Proximity Assay (SPA) Beads ([sequence]) containing 18 mM ZnSO4. The amount of 3H-cAMP hydrolysis was determined by counting the plates in a WALLAC 1450 μBeta LSC counter.
CHO-K1 cells stably expressing epitope FLAG PDE IV constructs were lysed by sonication for 10 secs at a power setting of 50% (Braunsonic Model 2000) in an ice cold solution containing 50 mM Tris, pH 7.5; 1 mM EDTA; protease inhibitor cocktail (Boehringer, Montreal, QUE). The soluble and particulate fractions of the cell were obtained by centrifuging the sonicate for 90 min at 100,000×g at 40° C.

patients = conditions: clinic; cited from earlier work
[3] = test system: full-length PDE Iva / HPDE IV; conditions: rolipram (racemic); cited from earlier work
cAMP PDE = conditions: membraneous and cytosolic fractions, rat brain; cited from earlier work
[4] = test system: catalytic portion of PDE IV; conditions: UCR1 and UCR2 deleted; cited from earlier work
PDE IVh6.1 = PDE IVh6.1 in S. cerevisiae or COS-1 cells; cited from earlier work
[5] = test system: constitutive phosphodiesterase of control cells (VH2); experiment: Constitutive phosphodiesterase activity in control cells (VH2); format: biochemical; conditions: control cells (VH2) in selection media
Protocol: as §1

FLAG PDE IVAmet330 [6] = biological target: FLAG PDE IVAmet330 (Homo sapiens, UniProt P27815, M723I); format: binding; design: made in house; conditions: 0.2 to 100 nM [^3 H](R)-rolipram
Protocol: CHO-K1 cells stably expressing epitope FLAG PDE IV constructs were lysed by sonication for 10 secs at a power setting of 50% (Braunsonic Model 2000) in an ice cold solution containing 50 mM Tris, pH 7.5; 1 mM EDTA; protease inhibitor cocktail (Boehringer, Montreal, QUE). The soluble and particulate fractions of the cell were obtained by centrifuging the sonicate for 90 min at 100,000×g at 40° C. […] The affinity matrix was washed with column buffer until all unbound protein was eluted from the column as determined with a UV-2 flow cell. Bound material was eluted with column buffer containing 0.5 mg/ml. FLAG peptide at a flow rate of 2 ml/min.
The filters were quickly washed with an ice-cold solution of 50 mM Tris; pH 7.5. […] Non-specific binding amounted to less than 5% of the total measured binding activity.

[7] = test system: PDE IVA enzyme and various deletion mutants; conditions: cited from earlier work

Chain of FLAG PDE IVAmet330 (Homo sapiens, UniProt P27815, M723I) (P27815 332-886 M723I): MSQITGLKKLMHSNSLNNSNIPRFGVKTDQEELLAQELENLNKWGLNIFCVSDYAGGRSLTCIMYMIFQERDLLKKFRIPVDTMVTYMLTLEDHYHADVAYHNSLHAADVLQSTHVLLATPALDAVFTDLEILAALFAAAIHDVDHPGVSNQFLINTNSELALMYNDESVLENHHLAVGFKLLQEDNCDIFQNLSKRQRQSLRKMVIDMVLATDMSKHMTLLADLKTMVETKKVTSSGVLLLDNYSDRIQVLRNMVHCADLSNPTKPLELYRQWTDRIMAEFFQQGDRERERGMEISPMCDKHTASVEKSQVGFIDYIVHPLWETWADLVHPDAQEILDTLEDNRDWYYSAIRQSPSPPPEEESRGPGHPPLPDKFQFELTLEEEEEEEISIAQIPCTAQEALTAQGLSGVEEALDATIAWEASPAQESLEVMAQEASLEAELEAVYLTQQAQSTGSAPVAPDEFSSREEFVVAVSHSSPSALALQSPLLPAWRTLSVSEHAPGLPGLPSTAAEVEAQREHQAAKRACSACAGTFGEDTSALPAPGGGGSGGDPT

## COc1ccc(C2CNC(=O)C2)cc1OC1CCCC1 (racemic) [rolipram]
[1]
  difference between measured Kd (binding) and IC50 (enzymatic): > 1000 fold
FLAG PDE IVAmet330 [2]
  sensitivity of truncated PDE IVa to inhibition: low sensitivity to inhibition by rolipram
patients
  nausea in patients: profound episodes of nausea in patients
  therapeutic window: extremely narrow therapeutic window
[3]
  inhibitory kinetics with respect to full-length PDE Iva: Mixed inhibitory kinetics
cAMP PDE
  concentrations inhibiting cAMP PDE activity: micromolar concentrations
[4]
  saturable high-affinity rolipram binding: no detectable saturable high-affinity rolipram binding
PDE IVh6.1
  inhibitory kinetics with respect to substrate: simple competitive inhibitor
[5]
  rolipram-sensitivity of constitutive phosphodiesterase activity: did not exhibit any rolipram-sensitivity
FLAG PDE IVAmet330 [6]
  saturable high-affinity binding to truncated enzyme: fails to bind rolipram with high-affinity

## COc1ccc(C(=O)Nc2c(Cl)cncc2Cl)cc1OC1CCCC1 [RP 73401]
[7]
  class of binding sites: single class of high-affinity binding sites
